Measurements published in patent US20230322846A9, “NEUROACTIVE STEROIDS AND THEIR METHODS OF USE” (SAGE THERAPEUTICS, INC., priority 2018, published 2023).

target: [35S]-TBPS binding, rat brain cortical membranes; assay: Steroid inhibition of [35S]-TBPS binding; conditions: 3 nM [35S]-TBPS, in the presence of 5 mM GABA
Procedure: [^35S]-t-Butylbicyclophosphorothionate (TBPS) binding assays using rat brain cortical membranes in the presence of 5 mM GABA has been described (Gee et al, J. Pharmacol. Exp. Ther. 1987, 241, 346-353; Hawkinson et al, Mol. Pharmacol. 1994, 46, 977-985; Lewin, A. H et al., Mol. Pharmacol. 1989, 35, 189-194).
Briefly, cortices are rapidly removed following decapitation of carbon dioxide-anesthetized Sprague-Dawley rats (200-250 g). The cortices are homogenized in 10 volumes of ice-cold 0.32 M sucrose using a glass/teflon homogenizer and centrifuged at 1500×g for 10 min at 4° C. The resultant supernatants are centrifuged at 10,000×g for 20 min at 4° C. to obtain the P2 pellets. The P2 pellets are resuspended in 200 mM NaCl/50 mM Na—K phosphate pH 7.4 buffer and centrifuged at 10,000×g for 10 min at 4° C. This washing procedure is repeated twice and the pellets are resuspended in 10 volumes of buffer. Aliquots ([…]) of the membrane suspensions are incubated with 3 nM [^35S]-TBPS and […] aliquots of test drug dissolved in dimethyl sulfoxide (DMSO) (final 0.5%) in the presence of 5 mM GABA. The incubation is brought to a final volume of 1.0 mL with buffer. Nonspecific binding is determined in the presence of […] and ranged from 15 to 25%. Following a 90 min incubation at room temp, the assays are terminated by filtration through glass fiber filters (Schleicher and Schuell No. 32) using a cell harvester (Brandel) and rinsed three times with ice-cold buffer. Filter bound radioactivity is measured by liquid scintillation spectrometry. Non-linear curve fitting of the overall data for each drug averaged for each concentration is done using Prism (GraphPad). […] The concentration of test compound producing 50% inhibition (IC50) of specific binding and the maximal extent of inhibition (Imax) are determined for the individual experiments with the same model used for the overall data and then the means±SEM.s of the individual experiments are calculated.
Various compounds are or can be screened to determine their potential as modulators of [^35S]-TBPS binding in vitro. These assays are or can be performed in accordance with the above

COC[C@@]1(O)CC[C@H]2[C@H](CC[C@@H]3[C@@H]2CC[C@]2(C)[C@@H]([C@@H](C)Cn4nccc4C#N)CC[C@@H]32)C1 [Example 37, 1-((R)-2-((3R,5R,8R,9R,10S,13S,14S,17R)-3-hydroxy-3-(methoxymethyl)-13-methylhexadecahydro-1H-cyclopenta[a]phenanthren-17-yl)propyl)-1H-pyrazole-5-carbonitrile] and COC[C@@]1(O)CC[C@H]2[C@@H](CC[C@@H]3[C@@H]2CC[C@]2(C)[C@@H]([C@@H](C)Cn4nnnc4C)CC[C@@H]32)C1 [Example 55, (3R,5S,8R,9R,10S,13S,14S,17R)-3-(methoxymethyl)-13-methyl-17-((R)-1-(5-methyl-1H-tetrazol-1-yl)propan-2-yl)hexadecahydro-1H-cyclopenta[a]phenanthren-3-ol] cannot be ordered by IC50: less than 0.1 µM for the first, less than 0.1 µM for the second.

First: C[C@H]([C@H]1CC[C@H]2[C@@H]3CC[C@@H]4C[C@](C)(O)CC[C@@H]4[C@H]3CC[C@]12C)N(C)c1ccccc1 [Example 38, (3R,5R,8R,9R,10S,13S,14S,17S)-3,13-dimethyl-17-((R)-1-(methyl(phenyl)amino)ethyl)hexadecahydro-1H-cyclopenta[a]phenanthren-3-ol]
Second: C[C@@H]([C@H]1CC[C@H]2[C@@H]3CC[C@@H]4C[C@](C)(O)CC[C@@H]4[C@H]3CC[C@]12C)N(C)c1ccccc1 [Example 39, (3R,5R,8R,9R,10S,13S,14S,17S)-3,13-dimethyl-17-((S)-1-(methyl(phenyl)amino)ethyl)hexadecahydro-1H-cyclopenta[a]phenanthren-3-ol]
The IC50 of the first is lower: 0.1 to 1 µM for the first, 1 to 10 µM for the second. The first is the more potent here.

C[C@H]([C@H]1CC[C@H]2[C@@H]3CC[C@@H]4C[C@](C)(O)CC[C@@H]4[C@H]3CC[C@]12C)N1Cc2cc(C#N)ccc2C1=O [Example 40, 2-((R)-1-((3R,5R,8R,9R,10S,13S,14S,17S)-3-hydroxy-3,13-dimethylhexadecahydro-1H-cyclopenta[a]phenanthren-17-yl)ethyl)-1-oxoisoindoline-5-carbonitrile] and C[C@H]([C@H]1CC[C@H]2[C@@H]3CC[C@@H]4C[C@](C)(O)CC[C@@H]4[C@H]3CC[C@]12C)N1CCc2cc(C#N)ccc2C1=O [Example 45, 2-((R)-1-((3R,5R,8R,9R,10S,13S,14S,17S)-3-hydroxy-3,13-dimethylhexadecahydro-1H-cyclopenta[a]phenanthren-17-yl)ethyl)-1-oxo-1,2,3,4-tetrahydroisoguinoline-6-carbonitrile] cannot be ordered by IC50: less than 0.1 µM for the first, less than 0.1 µM for the second.

CCOC[C@@]1(O)CC[C@H]2[C@H](CC[C@@H]3[C@@H]2CC[C@]2(C)[C@@H]([C@@H](C)NC(=O)c4ccccc4F)CC[C@@H]32)C1 [Example 42, N—((R)-1-((3R,5R,8R,9R,10S,13S,14S,17S)-3-(ethoxymethyl)-3-hydroxy-13-methylhexadecahydro-1H-cyclopenta[a]phenanthren-17-yl)ethyl)-2-fluorobenzamide] and CCOC[C@@]1(O)CC[C@H]2[C@H](CC[C@@H]3[C@@H]2CC[C@]2(C)[C@@H]([C@@H](C)N4Cc5cc(C#N)ccc5C4=O)CC[C@@H]32)C1 [Example 43, 2-((R)-1-((3R,5R,8R,9R,10S,13S,14S,17S)-3-(ethoxymethyl)-3-hydroxy-13-methylhexadecahydro-1H-cyclopenta[a]phenanthren-17-yl)ethyl)-1-oxoisoindoline-5-carbonitrile] fall in the same range of IC50: 0.1 to 1 µM for the first, 0.1 to 1 µM for the second.

COC[C@@]1(O)CC[C@H]2[C@H](CC[C@@H]3[C@@H]2CC[C@]2(C)[C@@H]([C@@H](C)N4Cc5cc(C#N)ccc5C4=O)CC[C@@H]32)C1 [Example 44, 2-((R)-1-((3R,5R,8R,9R,10S,13S,14S,17S)-3-hydroxy-3-(methoxymethyl)-13-methylhexadecahydro-1H-cyclopenta[a]phenanthren-17-yl)ethyl)-1-oxoisoindoline-5-carbonitrile] and CCOC[C@@]1(O)CC[C@H]2[C@H](CC[C@@H]3[C@@H]2CC[C@]2(C)[C@@H]([C@@H](C)N4CCc5cc(C#N)ccc5C4=O)CC[C@@H]32)C1 [Example 46, 2-((R)-1-((3R,5R,8R,9R,10S,13S,14S,17S)-3-(ethoxymethyl)-3-hydroxy-13-methylhexadecahydro-1H-cyclopenta[a]phenanthren-17-yl)ethyl)-1-oxo-1,2,3,4-tetrahydroisoquinoline-6-carbonitrile] cannot be ordered by IC50: less than 0.1 µM for the first, less than 0.1 µM for the second.

COC[C@@]1(O)CC[C@H]2[C@H](CC[C@@H]3[C@@H]2CC[C@]2(C)[C@@H](CCn4nnc(C)n4)CC[C@@H]32)C1 [Example 47, (3R,5R,8R,9R,10S,13R,14S,17R)-3-(methoxymethyl)-13-methyl-17-(2-(5-methyl-2H-tetrazol-2-yl)ethyl)hexadecahydro-1H-cyclopenta[a]phenanthren-3-ol] and COC[C@@]1(O)CC[C@H]2[C@H](CC[C@@H]3[C@@H]2CC[C@]2(C)[C@@H](CCn4nnnc4C)CC[C@@H]32)C1 [Example 48, (3R,5R,8R,9R,10S,13R,14S,17R)-3-(methoxymethyl)-13-methyl-17-(2-(5-methyl-1H-tetrazol-1-yl)ethyl)hexadecahydro-1H-cyclopenta[a]phenanthren-3-ol] cannot be ordered by IC50: less than 0.1 µM for the first, less than 0.1 µM for the second.

COC[C@@]1(O)CC[C@H]2[C@H](CC[C@@H]3[C@@H]2CC[C@]2(C)[C@@H](CCn4nccn4)CC[C@@H]32)C1 [Example 49, (3R,5R,8R,9R,10S,13R,14S,17R)-17-(2-(2H-1,2,3-triazol-2-yl)ethyl)-3-(methoxymethyl)-13-methylhexadecahydro-1H-cyclopenta[a]phenanthren-3-ol] and COC[C@@]1(O)CC[C@H]2[C@H](CC[C@@H]3[C@@H]2CC[C@]2(C)[C@@H](CCn4ccnn4)CC[C@@H]32)C1 [Example 50, (3R,5R,8R,9R,10S,13R,14S,17R)-17-(2-(1H-1,2,3-triazol-1-yl)ethyl)-3-(methoxymethyl)-13-methylhexadecahydro-1H-cyclopenta[a]phenanthren-3-ol] cannot be ordered by IC50: less than 0.1 µM for the first, less than 0.1 µM for the second.

C[C@@H](Cn1cc(C#N)cn1)[C@H]1CC[C@H]2[C@@H]3CC[C@@H]4C[C@](C)(O)CC[C@@H]4[C@H]3CC[C@]12C [Example 51, 1-((R)-2-((3R,5R,8R,9R,10S,13S,14S,17R)-3-hydroxy-3,13-dimethylhexadecahydro-1H-cyclopenta[a]phenanthren-17-yl)propyl)-1H-pyrazole-4-carbonitrile] and C[C@H](Cn1cc(C#N)cn1)[C@H]1CC[C@H]2[C@@H]3CC[C@@H]4C[C@](C)(O)CC[C@@H]4[C@H]3CC[C@]12C [Example 52, 1-((S)-2-((3R,5R,8R,9R,10S,13S,14S,17R)-3-hydroxy-3,13-dimethylhexadecahydro-1H-cyclopenta[a]phenanthren-17-yl)propyl)-1H-pyrazole-4-carbonitrile] cannot be ordered by IC50: less than 0.1 µM for the first, less than 0.1 µM for the second.

COC[C@@]1(O)CC[C@H]2[C@@H](CC[C@@H]3[C@@H]2CC[C@]2(C)[C@@H]([C@H](C)Cn4nnc(C)n4)CC[C@@H]32)C1 [Example 54, (3R,5S,8R,9R,10S,13S,14S,17R)-3-(methoxymethyl)-13-methyl-17-((S)-1-(5-methyl-2H-tetrazol-2-yl)propan-2-yl)hexadecahydro-1H-cyclopenta[a]phenanthren-3-ol] and COC[C@@]1(O)CC[C@H]2[C@@H](CC[C@@H]3[C@@H]2CC[C@]2(C)[C@@H]([C@H](C)Cn4nnnc4C)CC[C@@H]32)C1 [Example 56, (3R,5S,8R,9R,10S,13S,14S,17R)-3-(methoxymethyl)-13-methyl-17-((S)-1-(5-methyl-1H-tetrazol-1-yl)propan-2-yl)hexadecahydro-1H-cyclopenta[a]phenanthren-3-ol] fall in the same range of IC50: 0.1 to 1 µM for the first, 0.1 to 1 µM for the second.

First: C[C@@H](Cn1nccn1)[C@H]1CC[C@H]2[C@@H]3CC[C@H]4C[C@](C)(O)CC[C@@H]4[C@H]3CC[C@]12C [Example 57, (3R,5S,8R,9R,10S,13S,14S,17R)-17-((R)-1-(2H-1,2,3-triazol-2-yl)propan-2-yl)-3,13-dimethylhexadecahydro-1H-cyclopenta[a]phenanthren-3-ol]
Second: C[C@H](Cn1nccn1)[C@H]1CC[C@H]2[C@@H]3CC[C@H]4C[C@](C)(O)CC[C@@H]4[C@H]3CC[C@]12C [Example 58, (3R,5S,8R,9R,10S,13S,14S,17R)-17-((S)-1-(2H-1,2,3-triazol-2-yl)propan-2-yl)-3,13-dimethylhexadecahydro-1H-cyclopenta[a]phenanthren-3-ol]
The IC50 of the first is lower: 0.1 to 1 µM for the first, 1 to 10 µM for the second. The first is the more potent here.
